Laboratory results published in ChEMBL document CHEMBL1275350, “First in class, potent, and orally bioavailable NADPH oxidase isoform 4 (Nox4) inhibitors for the treatment of idiopathic pulmonary fibrosis” (J Med Chem, 2010).

Molecular target: Phosphatidylinositol 4,5-bisphosphate 3-kinase catalytic subunit gamma isoform (Homo sapiens) (UniProt P48736)
Assay: Inhibition of PI3Kgamma at 10
Details: concentration not given here

Phosphatidylinositol 4,5-bisphosphate 3-kinase catalytic subunit gamma isoform (Homo sapiens), sequence (P48736 whole entry, looked up, canonical isoform): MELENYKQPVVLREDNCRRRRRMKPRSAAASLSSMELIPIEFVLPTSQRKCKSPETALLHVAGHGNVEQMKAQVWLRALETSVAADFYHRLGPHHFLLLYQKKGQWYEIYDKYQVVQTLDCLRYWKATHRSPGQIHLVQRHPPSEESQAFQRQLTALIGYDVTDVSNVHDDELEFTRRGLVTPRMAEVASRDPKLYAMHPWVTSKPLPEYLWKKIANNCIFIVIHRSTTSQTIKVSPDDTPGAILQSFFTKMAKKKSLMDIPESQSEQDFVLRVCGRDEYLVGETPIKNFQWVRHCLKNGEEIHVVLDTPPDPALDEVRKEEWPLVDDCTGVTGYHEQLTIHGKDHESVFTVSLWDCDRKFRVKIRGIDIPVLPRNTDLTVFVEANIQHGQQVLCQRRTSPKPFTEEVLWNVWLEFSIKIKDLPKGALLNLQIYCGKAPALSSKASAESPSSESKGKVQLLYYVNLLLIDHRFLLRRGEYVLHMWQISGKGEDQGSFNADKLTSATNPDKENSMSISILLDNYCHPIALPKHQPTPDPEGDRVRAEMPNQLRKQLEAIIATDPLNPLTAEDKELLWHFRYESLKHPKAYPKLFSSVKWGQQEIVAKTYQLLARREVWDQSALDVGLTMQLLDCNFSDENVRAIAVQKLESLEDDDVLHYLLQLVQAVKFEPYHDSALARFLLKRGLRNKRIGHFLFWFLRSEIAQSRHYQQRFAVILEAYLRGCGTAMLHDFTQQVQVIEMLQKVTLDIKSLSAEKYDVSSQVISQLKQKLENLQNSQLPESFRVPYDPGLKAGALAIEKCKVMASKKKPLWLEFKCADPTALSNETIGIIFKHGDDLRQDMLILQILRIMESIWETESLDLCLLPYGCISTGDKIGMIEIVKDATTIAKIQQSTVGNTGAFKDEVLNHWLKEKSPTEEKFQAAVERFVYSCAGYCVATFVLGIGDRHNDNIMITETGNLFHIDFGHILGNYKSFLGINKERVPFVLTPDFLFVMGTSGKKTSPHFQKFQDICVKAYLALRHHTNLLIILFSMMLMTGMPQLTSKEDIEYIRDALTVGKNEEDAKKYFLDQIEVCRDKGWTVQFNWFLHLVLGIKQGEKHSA

Structure (SMILES): Cc1c2c(=O)n(-c3ccccc3Cl)[nH]c2cc(=O)n1Cc1ccccn1
- inhibition: 0%
